Data taken from patent US9863949B2, “Method for predicting and evaluating responsiveness to cancer treatment with DNA-damaging chemotherapeutic agents” (NEKTAR THERAPEUTICS, priority 2013, dated 2018).
Like-named read-outs stand apart in the source and are kept apart here.

Assays:
HL60 = test system: HL60
Description: (§1) Gemcitabine inhibits thymidylate synthetase, leading to inhibition of DNA synthesis and cell death. The cells were treated at concentrations of 0.01, 0.1, 1 and 10 μM in triplicate with appropriate controls.
(§2) A MTT cytotoxicity assay was performed. Optical density (OD) was determined for each sample, and IC50 values were determined (Graphpad Prism software using 4-parameter, non-linear curve fitting) for each drug relative to each cell line. The dose response of SN-38 and gemcitabine in the different cell lines was plotted.

NCI-H460 = test system: NCI-H460
Description: as §1, §2

NCI-H460 cells = test: DNA damage pathway markers in NCI-H460 cells treated ex vivo, laser scanning cytometry; type: cell-based; settings: NCI-H460, 0.01 μM drug
HCT116 cells = test: Biomarker assay qualification, drug-treated HCT116 cells, MFI by iCys; type: cell-based, human; settings: HCT116 treated with 10 μM SN-38 for 24 hours
Description: Primary and secondary antibodies were obtained from commercial sources. Control (0.1% DMSO) and drug-treated (SN-38, 10 uM) tumor cell lines and peripheral blood mononuclear cells (PBMCs) from healthy donors were used for biomarker qualification. The cell lines employed were as follows: HCT 116 (human colon carcinoma), MCF7 (human breast adenocarcinoma), A549 (human lung carcinoma), and SK-BR-3 (human breast adenocarcinoma, derived from metastatic site).
Colorectal HCT-116 tumor cell lines treated with drug (SN-38, 10 μM) or DMSO (0.1%) were used as positive and negative controls, respectively, for the assay development for topoisomerase I and γ-H2Ax. […] After incubation, cells were detached using 0.25% trypsin for 2-5 minutes, washed, counted, fixed with 2% PFA for 20 minutes, and cytospun onto glass slides.
Colorectal HCT-116 tumor cell lines treated with drug (SN-38, 10 μM) or DMSO (0.1%) were used as positive and negative controls for the assay development of RAD51. […] After incubation, cells were detached using 0.25% trypsin for 2-5 minutes, washed, counted, fixed with 2% PFA for 20 minutes, and cytospun onto glass slides.
For each marker, one to three different antibodies were tested. […] Cells were cover slipped and fluorescence intensity was quantified using iCys (CompuCyte, Westwood, Mass.). […]

[1] = 24 hr drug + 24 hr without drug

## Nc1ccn([C@@H]2O[C@H](CO)[C@@H](O)C2(F)F)c(=O)n1 [Gemcitabine, gemcitabine]
HL60
  dose response in MTT cytotoxicity assay: Good dose response
NCI-H460
  dose response in MTT cytotoxicity assay: Good dose response
NCI-H460 cells; 24 hr drug
  ATM % change in MFI: 125%
  ATM % change of positive cells: −28%
  BRCA1 % change in MFI: −3%
  BRCA1 % change of positive cells: 162%
  BRCA2 % change in MFI: −43%
  BRCA2 % change of positive cells: 130%
  RAD51 % change in MFI: 7%
  RAD51 % change of positive cells: 62%
  Survivin % change in MFI: −32%
  Survivin % change of positive cells: −32%
  yH2AX % change in MFI: 3%
  yH2AX % change of positive cells: 204%
NCI-H460 cells; 24 hr drug + 6 hr without drug
  ATM % change in MFI: 438%
  ATM % change of positive cells: 80%
  BRCA1 % change in MFI: 18%
  BRCA1 % change of positive cells: −54%
  BRCA2 % change in MFI: −28%
  BRCA2 % change of positive cells: 6%
  RAD51 % change in MFI: 127%
  RAD51 % change of positive cells: 613%
  Survivin % change in MFI: 223%
  Survivin % change of positive cells: 1%
  yH2AX % change in MFI: 40%
  yH2AX % change of positive cells: 1235%
NCI-H460 cells; [1]
  ATM % change in MFI: 151%
  ATM % change of positive cells: 40%
  BRCA1 % change in MFI: 206%
  BRCA1 % change of positive cells: 3750%
  BRCA2 % change in MFI: 296%
  BRCA2 % change of positive cells: 167%
  RAD51 % change in MFI: 23%
  RAD51 % change of positive cells: 260%
  Survivin % change in MFI: 457%
  Survivin % change of positive cells: −14%
  yH2AX % change in MFI: 288%
  yH2AX % change of positive cells: 1834%

## CCc1c2c(nc3ccc(O)cc13)-c1cc3c(c(=O)n1C2)COC(=O)[C@]3(O)CC [SN-38]
HL60; HL60, 72 hours, 0.01-10 μM
  dose response in MTT cytotoxicity assay: Good dose response
NCI-H460; H460, 72 hours, 0.01-10 μM
  dose response in MTT cytotoxicity assay: Good dose response
NCI-H460 cells; 24 hr drug
  ATM % change in MFI: 120%
  ATM % change of positive cells: 13%
  BRCA1 % change in MFI: −8%
  BRCA1 % change of positive cells: 143%
  BRCA2 % change in MFI: −20%
  BRCA2 % change of positive cells: 131%
  RAD51 % change in MFI: −8%
  RAD51 % change of positive cells: 180%
  Survivin % change in MFI: 149%
  Survivin % change of positive cells: −18%
  yH2AX % change in MFI: 1%
  yH2AX % change of positive cells: 235%
NCI-H460 cells; 24 hr drug + 6 hr without drug
  ATM % change in MFI: 329%
  ATM % change of positive cells: 88%
  BRCA1 % change in MFI: −10%
  BRCA1 % change of positive cells: −52%
  BRCA2 % change in MFI: −16%
  BRCA2 % change of positive cells: 8%
  RAD51 % change in MFI: 120%
  RAD51 % change of positive cells: 337%
  Survivin % change in MFI: 203%
  Survivin % change of positive cells: 4%
  yH2AX % change in MFI: −7%
  yH2AX % change of positive cells: 919%
NCI-H460 cells; [1]
  ATM % change in MFI: 41%
  ATM % change of positive cells: 105%
  BRCA1 % change in MFI: 162%
  BRCA1 % change of positive cells: 3700%
  BRCA2 % change in MFI: 263%
  BRCA2 % change of positive cells: 261%
  RAD51 % change in MFI: 32%
  RAD51 % change of positive cells: 60%
  Survivin % change in MFI: 210%
  Survivin % change of positive cells: 85%
  yH2AX % change in MFI: −77%
  yH2AX % change of positive cells: 328%
HCT116 cells; staining panel 1
  γ-H2Ax High, MFI (x10^3): HCT116 (SN38), 487 x10^3
HCT116 cells; staining panel 2
  RAD51 High, MFI (x10^3): HCT116 (SN38), 948 x10^3

## pentaerythritolyl-4-arm-(PEG-1-methylene-2 oxo-vinylamino acetate linked-irinotecan)-20K [4-arm-PEG-gly-irino-20K]
Metastatic breast cancer; 145 mg/m^2 IV, every 14 days or every 21 days
  objective response rate (ORR): 28.6%
Metastatic breast cancer; Total
  Overall Survival (OS): 10.3 months
  Progression Free Survival (PFS): 4.6 months
Metastatic breast cancer; Total, 16/45
  Overall best CA27.29 response (50% or better decline in at least one observation from baseline): 36% (16/45)
Metastatic breast cancer; Total, N = 66
  Overall Response Rate (ORR): 29% (N = 66)
Metastatic breast cancer; q21d
  Overall Survival (OS): (13.1 months in q21d)
  Progression Free Survival (PFS): (5.3 months in q21d)
